Here are results for seven compounds from patent US10745394B2, “8-azabicyclo[3.2.1]octane compounds as mu opioid receptor antagonists” (priority 2006, dated 2020).

Assay [1] addresses T1, human mu opioid receptor (Homo sapiens, UniProt P35372).
T1 construct: expressed in transfected cells; host or cells: CHO-K1
As to the kind of experiment: Radioligand binding assay, human mu opioid receptor. The note with it: displacement of [3H]-Diprenorphine. A general note: Loss of bound radioactivity is the signal in a displacement assay; it reports binding, not function.

For assay [2], the target named is T1, human mu opioid receptor. Description: Human mu GTP-Eu nucleotide exchange assay (agonist mediated activation) in CHO-K1 membranes. It is filed as biochemical. The conditions noted are these: bound GTP-Eu relative to DAMGO (IA=100); read-out: intrinsic activity (IA). As for the experimental part: a. Mu Opioid Receptor Membrane Preparation:
Protein concentration was determined using a Bio-Rad Bradford Protein Assay kit. Membranes were stored in frozen aliquots at −80° C., until required. Lyophilized GTP-Eu and GDP were diluted to 10 μM and 2 mM, respectively, in double distilled H2O then mixed and permitted to sit at room temperature for 30 minutes prior to transfer to individual aliquots samples for storage at −20° C.
b. Human Mu GTP-Eu Nucleotide Exchange Assay
GTP-Eu nucleotide exchange assays were performed using the DELPHIA GTP-binding kit (Perkin/Elmer) in AcroWell 96 well filter plates according to the manufacturer's specifications. […] Test compounds were received as 10 mM stock solutions in DMSO, diluted to 400 μM into Assay Buffer containing 0.1% BSA, and serial (1:5) dilutions then made to generate ten concentrations of compound ranging from 40 pM^− 80 μM-GDP and GTP-Eu were diluted to 4 μM and 40 nM, respectively, in Assay Buffer. The assay was performed in a total volume of 100 μL containing 5 μg of membrane protein, test compound ranging from 10 pM-20 μM), 1 μM GDP, and 10 nM GTP-Eu diluted in 10 mM MgCl2, 50 mM NaCl, and 0.0125% BSA, (final assay concentrations). A DAMGO (Tyr-D-Ala-Gly-(methyl)Phe-Gly-ol) concentration-response curve (ranging from 12.8 pM-1 μM) was included on every plate.
Assay plates were prepared immediately prior to assay following the addition of 25 μL of Assay Buffer, 25 μL of test compound, and 25 μL GDP and GTP-Eu. The assay was initiated by the addition of 25 μL membrane protein and allowed to incubate for 30 minutes. The assay plates were then filtered with a Waters vacuum manifold connected to the house vacuum regulated to 10-2 in. Hg and washed with room temperature GTP Wash Solution ([…]). The bottoms of the plates were blotted to remove excess liquid. The plates were then immediately read to determine the amount of bound GTP-Eu by measuring Time Resolved Fluorescence (TRF) on a Packard Fusion Plate ReaderVehicle: DMSO not to exceed 1% final assay concentration.
The amount of bound GTP-Eu is proportional to the degree of activation of the mu opioid receptors by the test compound.

Assay [3] has as its system morphine-induced analgesia / morphine-induced delayed gastrointestinal transit.
Where [4] appears, read: following subcutaneous administration.

Like-named read-outs stand apart in the source and are kept apart here.

T1 sequence (P35372 whole entry): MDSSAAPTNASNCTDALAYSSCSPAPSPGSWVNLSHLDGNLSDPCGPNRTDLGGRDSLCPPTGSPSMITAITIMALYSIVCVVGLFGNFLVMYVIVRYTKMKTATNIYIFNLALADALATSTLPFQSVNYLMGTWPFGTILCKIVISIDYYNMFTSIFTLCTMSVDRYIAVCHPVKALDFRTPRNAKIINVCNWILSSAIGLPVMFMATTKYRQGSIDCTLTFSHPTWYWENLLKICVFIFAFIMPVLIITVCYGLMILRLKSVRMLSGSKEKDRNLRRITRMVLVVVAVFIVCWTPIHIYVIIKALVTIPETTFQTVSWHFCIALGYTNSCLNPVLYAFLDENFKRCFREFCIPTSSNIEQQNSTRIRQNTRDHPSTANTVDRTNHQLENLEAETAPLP

`O=C(CO)N(CCN1[C@@H]2CC[C@H]1C[C@@H](c1cccc(O)c1)C2)Cc1ccccc1` [Example 1, N-benzyl-2-hydroxy-N-{2-[3-endo-(3-hydroxyphenyl)-8-azabicyclo[3.2.1]oct-8-yl]ethyl}acetamide] displayed a pKi in assay [1] of 10.1. In assay [2], the Emax stood at 6%.

Compound `NC(=O)c1cccc([C@H]2C[C@H]3CC[C@@H](C2)N3CCN(Cc2ccccc2)C(=O)CO)c1` [Example 46B, 3-endo-(8-{2-[benzyl-(2-hydroxyacetyl)-amino]ethyl}-8-azabicyclo[3.2.1]oct-3-yl)benzamide] had a negative logarithm of the Ki (pKi) in assay [1] of 10.0. In assay [2], the Emax is -3%.

As for `NC(=O)c1cccc([C@H]2C[C@H]3CC[C@@H](C2)N3CCN(CC2CCCCC2)C(=O)CO)c1` [Example 48B, 3-endo-(8-{2-[cyclohexylmethyl-(2-hydroxyacetyl)-amino]-ethyl}-8-azabicyclo[3.2.1]oct-3-yl)benzamide], the “peripheral selectivity (hotplate ID50 / intestinal transit ID50)” value in assay [3] (following oral administration) is given as 42; in assay [3] (setting [4]), 30.

Regarding `NC(=O)c1cccc([C@H]2C[C@H]3CC[C@@H](C2)N3CCN(CC2CCCCC2)C(=O)[C@@H](O)CO)c1` [Example 58, 3-endo-(8-{2-[cyclohexylmethyl-((S)-2,3-dihydroxy-propionyl)amino]ethyl}-8-aza-bicyclo[3.2.1]oct-3-yl)benzamide], in assay [1], the pKi came out at 9.9. Also, the Emax in assay [2] was -3%. Also, the “peripheral selectivity (hotplate ID50 / intestinal transit ID50)” value came out at 35 in assay [3] (following oral administration) and 300 in assay [3] (setting [4]).

Turning to `NC(=O)c1cccc([C@H]2C[C@H]3CC[C@@H](C2)N3CCN(CCc2ccccc2)C(=O)CO)c1` [Example 59, 3-endo-(8-{2-[(2-hydroxyacetyl)phenethylamino]-ethyl}-8-azabicyclo[3.2.1]oct-3-yl)benzamide], the Emax in assay [2] is -2%.

`NC(=O)c1cccc([C@H]2C[C@H]3CC[C@@H](C2)N3CCN(CC2CCC(F)(F)CC2)C(=O)CO)c1` [Example 63, 3-endo-(8-{2-[(4,4-difluorocyclohexylmethyl)-(2-hydroxyacetyl)amino]ethyl}-8-azabicyclo[3.2.1]oct-3-yl)benzamide]: the “peripheral selectivity (hotplate ID50 / intestinal transit ID50)” value in assay [3] (following oral administration) and in assay [3] (setting [4]) was 22 in each case.

With `CS(=O)(=O)CC(=O)N(CCc1ccccc1)CCN1[C@@H]2CC[C@H]1C[C@@H](c1cccc(C(N)=O)c1)C2` [Example 136, 3-endo-(8-{2-[(2-methanesulfonylacetyl)phenethylamino]ethyl}-8-azabicyclo[3.2.1]oct-3-yl)-benzamide], the pKi in assay [1] is recorded as 9.8. Moreover, the Emax in assay [2] is 14%.

Broadly, the pKi is the negative decadic logarithm of the Ki, by convention in mol/L.
